Laboratory results as given in US20230312605A1, “PYRROLO[2,1-F][1,2,4]TRIAZINES AND PREPARATION AND USES THEREOF” (BioSplice Therapeutics, Inc., priority 2021, published 2023).

Molecular target: recombinant DYRK1A kinase (Homo sapiens (Human), UniProt Q13627)
Test: DYRK1A kinase assay (Ser/Thr 18 peptide Z-lyte FRET assay)
Type: biochemical
Details: recombinant DYRK1A 0.25 µg/mL, ATP 15 µM, Ser/Thr peptide 18 4 µM, one hour at room temperature; table head prints EC50, method says IC50
Procedure: Representative compounds were screened using the assay procedure for DYRK1A kinase activity as described below.
Each compound was dissolved in DMSO as a 10 mM stock and used to prepare compound source plates. Serial dilution (1:3, 11-point dose-response curves from 10 µM to 0.00016 µM) and compound transfer was performed using the ECHO 550 (Labcyte, Sunnyvale, CA) into 1536-well black-walled round bottom plates (Corning).
The DYRK1A kinase assay was run using the Ser/Thr 18 peptide Z-lyte assay kit according to manufacturer’s instructions (Life Technologies- a Division of Thermo-Fisher). This is a non-radioactive assay using fluorescence resonance energy transfer (FRET) between coumarin and fluorescein to detect kinase activity which is represented as a ratio of coumarin emission/fluorescein emission.
Briefly, recombinant DYRK1A kinase, ATP and Ser/Thr peptide 18 were prepared in 1X Kinase buffer to final concentrations of 0.25 µg/mL, 15 µM, and 4 µM respectively. The mixture was allowed to incubate with the representative compounds for one hour at room temperature. All reactions were performed in duplicate. Unphosphorylated (“0% Control”) and phosphorylated (“100% control”) forms of Ser/Thr 18 served as control reactions. Additionally, an 11-point dose-response curve of Staurosporine (1uM top) was run to serve as a positive compound control.
After incubation, Development Reagent A was diluted in Development Buffer then added to the reaction and allowed to further incubate for one hour at room temperature. The plate was read at Ex 400 Em 455 to detect the coumarin signal and Ex 400 Em 520 to measure the signal (EnVision Multilabel Plate Reader, PerkinElmer).
The Emission ratio (Em) was calculated as a ratio of the coumarin (C) emission signal (at 445 nm)/Fluorescein (F) emission signal (at 520 nm). The percent phosphorylation was then calculated using the following formula: [1 — ((Em ratio X F100%)—C100%)/ ((C0%—C100%) + (Em ratio X (F100% - F0%)))]. Dose-response curves were generated, and inhibitory concentration (IC50) values were calculated using non-linear regression curve fit in the Dotmatics’ Studies Software (Bishops Stortford, UK).

SMILES	EC50
FC(F)(CNc1ncc2c(-c3cnc4nccn4c3)ccn2n1)C1CC1 [Compound 232, N-(2-Cyclopropyl-2,2-difluoroethyl)-5-(imidazo[1,2-a]pyrimidin-6-yl) pyrrolo[2,1-f][1,2,4]triazin-2-amine]	9 nM
COCCO[C@H]1C[C@@H](Nc2ncc3c(-c4cnc5ncccc5c4)ccn3n2)C1 [Compound 1522, N-(cis-3-(2-Methoxyethoxy)cyclobutyl)-5-(1,8-naphthyridin-3-yl)pyrrolo [2,1-f][1,2,4]triazin-2-amine]	3 nM
CN1CC2(CC(Nc3ncc4c(-c5cnc6nccn6c5)ccn4n3)C2)C1 [Compound 283, 5-(Imidazo[1,2-a]pyrimidin-6-yl)-N-(2-methyl-2-azaspiro[3.3]heptan-6-yl)pyrrolo[2,1-f][1,2,4]triazin-2-amine]	20 nM
COCCO[C@H]1CC[C@H](Nc2ncc3c(-c4cnc5ncccc5c4)ccn3n2)CC1 [Compound 1544, N-(trans-4-(2-Methoxyethoxy)cyclohexyl)-5-(1,8-naphthyridin-3-yl)pyrrolo [2,1-f][1,2,4]triazin-2-amine]	5 nM
Cc1nc2ncc(-c3ccn4nc(N[C@@H]5CCN(C)C[C@H]5F)ncc34)cc2n1CC(F)F [Compound 1885, 5-(1-(2,2-Difluoroethyl)-2-methyl-1H-imidazo[4,5-b]pyridin-6-yl)-N-((3R,4R)-3-fluoro-1-methylpiperidin-4-yl)pyrrolo[2,1-f][1,2,4]triazin-2-amine]	6 nM
CC(=O)N[C@H]1CC[C@@H](Nc2ncc3c(-c4ccc5nc(C)n(CC(F)F)c5n4)ccn3n2)CC1 [Compound 1898, N-(cis-4-((5-(3-(2,2-Difluoroethyl)-2-methyl-3H-imidazo [4,5-b]pyridin-5-yl)pyrrolo[2,1-f] [1,2,4]triazin-2-yl)amino)cyclohexyl)acetamide]	3 nM
Cc1nc2ccc(-c3ccn4nc(NC5CCC6(CC5)OCCO6)ncc34)nc2n1CC(F)F [Compound 1847]	5 nM
Cc1nc2ccc(-c3ccn4nc(N[C@H]5CC[C@@](C)(O)CC5)ncc34)nc2n1CC1COC1 [Compound 1875, cis-1-Methyl-4-((5-(2-methyl-3-(oxetan-3-ylmethyl)-3H-imidazo[4,5-b]pyridin-5-yl)pyrrolo[2,1-f][1,2,4]triazin-2-yl)amino)cyclohexan-1-ol]	14 nM
CC(C)CNc1ncc2c(-c3ccc4nccn4c3)ccn2n1 [Compound 2, 5-(Imidazo[1,2-a]pyridin-6-yl)-N-isobutylpyrrolo[2,1-f][1,2,4]triazin-2-amine]	41 nM
Cc1nc2ccc(-c3ccn4nc(N[C@H]5CC[C@@H](OCCO)CC5)ncc34)nc2n1CC(F)F [Compound 1839, 2-((cis-4-((5-(3-(2,2-difluoroethyl)-2-methyl-3H-imidazo[4,5-b]pyridin-5-yl)pyrrolo[2,1-f][1,2,4]triazin-2-yl)amino)cyclohexyl)oxy)ethan-1-ol]	4 nM
c1cn2cc(-c3ccn4nc(NC5CCOCC5)ncc34)cnc2n1 [Compound 280, 5-(imidazo[1,2-a]pyrimidin-6-yl)-N-(tetrahydro-2H-pyran-4-yl)pyrrolo[2,1-f][1,2,4]triazin-2-amine]	15 nM
Cc1nc2ccc(-c3ccn4nc(N[C@@H]5CCOC[C@H]5F)ncc34)nc2n1CC(F)F [Compound 1912, 5-(3-(2,2-Difluoroethyl)-2-methyl-3H-imidazo[4,5-b]pyridin-5-yl)-N-((3S,4R)-3-fluorotetrahydro-2H-pyran-4-yl)pyrrolo[2,1-f] [1,2,4]triazin-2-amine]	7 nM
Cc1nc2ccc(-c3ccn4nc(NCC(C)(C)F)ncc34)nc2n1C [Compound 855, 5-(2,3-Dimethyl-3H-imidazo[4,5-b]pyridin-5-yl)-N-(2-fluoro-2-methylpropyl)pyrrolo[2,1-f][1,2,4]triazin-2-amine]	43 nM
c1cn2cc(-c3ccn4nc(NCC5COC5)ncc34)ccc2n1 [Compound 20]	67 nM
CC(=O)N1CC2(CCC(Nc3ncc4c(-c5ccc6nc(C)n(CC(F)F)c6n5)ccn4n3)CC2)C1 [Compound 1899, 1-(7-((5-(3-(2,2-difluoroethyl)-2-methyl-3H-imidazo[4,5-b]pyridin-5-yl)pyrrolo[2,1-f][1,2,4]triazin-2-yl)amino)-2-azaspiro[3.5]nonan-2-yl)ethan-1-one]	1 nM
CN1CC(Nc2ncc3c(-c4ccc5nccn5c4)ccn3n2)C1 [Compound 64, 5-(Imidazo[1,2-a]pyridin-6-yl)-N-(1-methylazetidin-3-yl)pyrrolo[2,1-f] [1,2,4]triazin-2-amine]	192 nM
Cc1nc2ccc(-c3ccn4nc(NC5CCN(C(=O)C(C)C)CC5)ncc34)nc2n1CC(F)F [Compound 1859, 1-(4-((5-(3-(2,2-Difluoroethyl)-2-methyl-3H-imidazo[4,5-b]pyridin-5-yl)pyrrolo[2,1-f][1,2,4]triazin-2-yl)amino)piperidin-1-yl)-2-methylpropan-1-one]	8 nM
Cc1nc2ccc(-c3ccn4nc(N[C@@H]5CN(C)C[C@@H]5F)ncc34)nc2n1CC(F)F [Compound 1900]	5 nM
CC(C)CNc1ncc2c(-c3cnc4nccn4c3)ccn2n1 [Compound 215, 5-(Imidazo[1,2-a]pyrimidin-6-yl)-N-isobutylpyrrolo[2,1-f][1,2,4]triazin-2-amine]	6 nM
Cc1nc2ncc(-c3ccn4nc(N[C@H]5CC[C@@H](O)CC5)ncc34)cc2n1CC(F)F [Compound 683, cis-4-((5-(1-(2,2-Difluoroethyl)-2-methyl-1H-imidazo[4,5-b]pyridin-6-yl)pyrrolo[2,1-f][1,2,4]triazin-2-yl)amino)cyclohexan-1-ol]	6 nM
Cc1nc2ncc(-c3ccn4nc(NC5CCN(C6COC6)CC5)ncc34)cc2n1CC(F)F [Compound 1889, 5-(1-(2,2-Difluoroethyl)-2-methyl-1H-imidazo[4,5-b]pyridin-6-yl)-N-(1-(oxetan-3-yl)piperidin-4-yl)pyrrolo[2,1-f][1,2,4]triazin-2-amine]	7 nM
Cc1nc2ncc(-c3ccn4nc(N[C@H]5CC[C@@H](OCCO)CC5)ncc34)cc2n1CC(F)F [Compound 1878, 2-((cis-4-((5-(1-(2,2-Difluoroethyl)-2-methyl-1H-imidazo[4,5-b]pyridin-6-yl)pyrrolo[2,1-f][1,2,4]triazin-2-yl)amino)cyclohexyl)oxy)ethan-1-ol]	2 nM
CCC(=O)N1CCC(Nc2ncc3c(-c4ccc5nc(C)n(CC(F)F)c5n4)ccn3n2)CC1 [Compound 1858, 1-(4-((5-(3-(2,2-Difluoroethyl)-2-methyl-3H-imidazo[4,5-b]pyridin-5-yl)pyrrolo[2,1-f][1,2,4]triazin-2-yl)amino)piperidin-1-yl)propan-1-one]	7 nM
COCCO[C@H]1C[C@@H](Nc2ncc3c(-c4ccc5ncccc5c4)ccn3n2)C1 [Compound 1309, N-(cis-3-(2-Methoxyethoxy)cyclobutyl)-5-(quinolin-6-yl)pyrrolo[2,1-f][1,2,4]triazin-2-amine]	3 nM
Cc1nc2ccc(-c3ccn4nc(N[C@H]5C[C@@H](N6CCOCC6)C5)ncc34)nc2n1CC(F)F [Compound 1892, 5-(3-(2,2-Difluoroethyl)-2-methyl-3H-imidazo[4,5-b]pyridin-5-yl)-N-(cis-3-morpholinocyclobutyl)pyrrolo[2,1-f][1,2,4]triazin-2-amine]	2 nM
